Values of other authors in US20080233219A1, “Composition for diet comprising plant essential oil as active ingredient, sheet type composition for diet comprising thereof, percutaneous pharmaceutical agent for diet comprising thereof, and method for producing thereof” (NATURE TECHNOLOGY INC., priority 2005, published 2008).

What was measured:
[1] = in vivo
[2] = in three month

In the case of OC1(c2ccc(Cl)cc2)c2ccccc2C2=NCCN21 (centres unmarked) [Mazindol], the side effects [1] is given as “not serious ones except cotton mouth, astriction, indigestible feeling” and the “gradual weight loss, average” value [2] is given as “about 4.5 kg”.
